Source: patent publication US20150051206A1, “COMPOUNDS AND COMPOSITIONS AS C-KIT KINASE INHIBITORS” (IRM LLC, priority 2011, published 2015)

Target: T1, c-kit (Homo sapiens, UniProt P10721)
T1 construct: human Mo7e cells which endogenously express c-kit; endogenous in cells; host or cells: human Mo7e cells (promegakaryocytic leukemia line), stimulated with human recombinant SCF
Assay: Mo7e cell proliferation assay (SCF dependent proliferation)
Format: cell-based
Settings: Table 1; Mo7e cells stimulated with human recombinant SCF, 48 hours; 1% FBS
Method: Compounds of Formula (I) and Formula (II) provided herein were assayed to measure their capacity to inhibit c-kit and PDGFR kinases using the appropriate assay described below: c-Kit inhibition was evaluated using the Mo7e cell proliferation assay, and PDGFR inhibition was evaluated using the Rat A10 cell proliferation assay and the Human TG/HA-VSMC cell proliferation assay.
The compounds of Table 1 and Table 2 were tested for inhibition of SCF dependent proliferation using human Mo7e cells which endogenously express c-kit in a 384 well format. […] After 48 hours of incubation at 37° C., cell viability was measured by adding 25 uL of CellTiter Glo (Promega) to the cells and the luminescence was measured by a CLIPR CCD camera (Molecular Devices).
The IC50 value is given as that concentration of the test compound in question that provoke a response halfway between the baseline and maximum responses.

T1 sequence (P10721 26-976): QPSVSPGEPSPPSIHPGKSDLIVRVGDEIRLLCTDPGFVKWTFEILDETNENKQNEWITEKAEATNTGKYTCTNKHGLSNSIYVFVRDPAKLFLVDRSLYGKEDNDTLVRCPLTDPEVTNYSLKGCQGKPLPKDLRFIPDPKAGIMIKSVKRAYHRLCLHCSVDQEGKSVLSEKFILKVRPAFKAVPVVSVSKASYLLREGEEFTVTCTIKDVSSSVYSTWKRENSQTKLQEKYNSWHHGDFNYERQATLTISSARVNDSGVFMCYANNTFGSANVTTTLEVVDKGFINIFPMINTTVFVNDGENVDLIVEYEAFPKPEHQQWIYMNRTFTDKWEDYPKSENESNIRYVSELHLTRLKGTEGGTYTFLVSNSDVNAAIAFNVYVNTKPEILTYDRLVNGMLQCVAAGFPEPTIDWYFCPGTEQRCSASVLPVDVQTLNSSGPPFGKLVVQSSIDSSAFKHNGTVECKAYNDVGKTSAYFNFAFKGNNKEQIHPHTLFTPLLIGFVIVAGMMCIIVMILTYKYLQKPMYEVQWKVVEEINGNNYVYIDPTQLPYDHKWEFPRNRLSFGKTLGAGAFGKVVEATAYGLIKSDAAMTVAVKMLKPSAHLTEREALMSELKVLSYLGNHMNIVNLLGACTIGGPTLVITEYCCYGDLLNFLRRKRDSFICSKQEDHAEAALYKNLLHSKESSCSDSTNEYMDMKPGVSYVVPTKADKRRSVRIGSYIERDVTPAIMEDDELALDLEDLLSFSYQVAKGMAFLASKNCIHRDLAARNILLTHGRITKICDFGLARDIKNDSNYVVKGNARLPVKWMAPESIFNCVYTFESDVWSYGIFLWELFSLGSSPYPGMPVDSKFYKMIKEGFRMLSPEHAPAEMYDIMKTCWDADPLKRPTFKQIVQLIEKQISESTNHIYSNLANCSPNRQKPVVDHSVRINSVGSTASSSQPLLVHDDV

Row | SMILES | IC50 [nM]
1 | Cc1ccc(-c2nc(-c3ccccc3)no2)cc1NC(=O)c1cnc2ccccn12 [F2, N-[2-methyl-5-(3-phenyl-1,2,4-oxadiazol-5-yl)phenyl]imidazo[1,2-a]pyridine-3-carboxamide] | 16
2 | Cc1ccc(-c2nc(-c3cccc(OC(F)(F)F)c3)no2)cc1NC(=O)c1cnc2ccccn12 [F6, N-(2-methyl-5-{3-[3-(trifluoromethoxy)phenyl]-1,2,4-oxadiazol-5-yl}phenyl)imidazo[1,2-a]pyridine-3-carboxamide] | 89
3 | Cc1ccc(-c2nc(-c3cccc(C(F)(F)F)c3)no2)cc1NC(=O)c1cnc2ccccn12 [F7, N-(2-methyl-5-{3-[3-(trifluoromethyl)phenyl]-1,2,4-oxadiazol-5-yl}phenyl)imidazo[1,2-a]pyridine-3-carboxamide] | 69
4 | Cc1ccc(-c2nc(Cc3ccccc3F)no2)cc1NC(=O)c1cnc2ccccn12 [F9, N-(5-{3-[(2-fluorophenyl)methyl]-1,2,4-oxadiazol-5-yl}-2-methylphenyl)imidazo[1,2-a]pyridine-3-carboxamide] | 9
5 | Cc1ccnc(-c2noc(-c3ccc(C)c(NC(=O)c4cnc5ccccn45)c3)n2)c1 [F10, N-{2-methyl-5-[3-(4-methylpyridin-2-yl)-1,2,4-oxadiazol-5-yl]phenyl}imidazo[1,2-a]pyridine-3-carboxamide] | 24
6 | Cc1ccc(-c2noc(-c3ccccn3)n2)cc1NC(=O)c1cnc2ccccn12 [F11, N-(2-methyl-5-(5-(pyridin-2-yl)-1,2,4-oxadiazol-3-yl)phenyl)imidazo[1,2-a]pyridine-3-carboxamide] | 75
7 | Cc1ccc(Nc2noc(-c3cnccn3)n2)cc1NC(=O)c1cnc2ccccn12 [F18, N-(2-methyl-5-{[5-(pyrazin-2-yl)-1,2,4-oxadiazol-3-yl]amino}phenyl)imidazo[1,2-a]pyridine-3-carboxamide] | 9
8 | Cc1ccc(Nc2noc(-c3ncccn3)n2)cc1NC(=O)c1cnc2ccccn12 [F19, N-(2-methyl-5-{[5-(pyrimidin-2-yl)-1,2,4-oxadiazol-3-yl]amino}phenyl)imidazo[1,2-a]pyridine-3-carboxamide] | 82
9 | Cc1nc(-c2nc(-c3ccc(C)c(NC(=O)c4cnc5ccccn45)c3)no2)c(C(F)(F)F)o1 [F22, N-(2-methyl-5-{5-[2-methyl-5-(trifluoromethyl)-1,3-oxazol-4-yl]-1,2,4-oxadiazol-3-yl}phenyl)imidazo[1,2-a]pyridine-3-carboxamide] | 32
10 | Cc1nc(C(F)(F)F)c(-c2nc(-c3ccc(C)c(NC(=O)c4cnc5ccccn45)c3)no2)s1 [F23, N-(2-methyl-5-{5-[2-methyl-4-(trifluoromethyl)-1,3-thiazol-5-yl]-1,2,4-oxadiazol-3-yl}phenyl)imidazo[1,2-a]pyridine-3-carboxamide] | 61

The next lines start with the values.

Row | IC50 [nM] | SMILES
11 | 51 | Cc1ccc(-c2nc(Nc3ccccc3)no2)cc1NC(=O)c1cnc2ccccn12 [F1, N-(2-methyl-5-(3-(phenylamino)-1,2,4-oxadiazol-5-yl)phenyl)imidazo[1,2-a]pyridine-3-carboxamide]
12 | 40 | Cc1ccc(Nc2noc(-c3ccnc(N4CCOCC4)c3)n2)cc1NC(=O)c1cnc2ccccn12 [F12, N-[2-methyl-5-({5-[2-(morpholin-4-yl)pyridin-4-yl]-1,2,4-oxadiazol-3-yl}amino)phenyl]imidazo[1,2-a]pyridine-3-carboxamide]
13 | 71 | Cc1ccc(Nc2noc(-c3cccc(N4CCN(C)CC4)c3)n2)cc1NC(=O)c1cnc2ccccn12 [F13, N-[2-methyl-5-({5-[3-(4-methylpiperazin-1-yl)phenyl]-1,2,4-oxadiazol-3-yl}amino)phenyl]imidazo[1,2-a]pyridine-3-carboxamide]
14 | 29 | Cc1ccc(Nc2noc(-c3cccc(N4CCOCC4)c3)n2)cc1NC(=O)c1cnc2ccccn12 [F14, N-[2-methyl-5-({5-[3-(morpholin-4-yl)phenyl]-1,2,4-oxadiazol-3-yl}amino)phenyl]imidazo[1,2-a]pyridine-3-carboxamide]
15 | 6 | Cc1ccc(Nc2noc(-c3cscn3)n2)cc1NC(=O)c1cnc2ccccn12 [F15, N-(2-methyl-5-{[5-(1,3-thiazol-4-yl)-1,2,4-oxadiazol-3-yl]amino}phenyl)imidazo[1,2-a]pyridine-3-carboxamide]
16 | 27 | Cc1ccc(Nc2noc(-c3nccn3C)n2)cc1NC(=O)c1cnc2ccccn12 [F16, N-(2-methyl-5-{[5-(1-methyl-1H-imidazol-2-yl)-1,2,4-oxadiazol-3-yl]amino}phenyl)imidazo[1,2-a]pyridine-3-carboxamide]
17 | 2 | Cc1ccc(-c2nc(Nc3ccc(C)c(NC(=O)c4cnc5ccccn45)c3)no2)cn1 [F17, N-(2-methyl-5-{[5-(6-methylpyridin-3-yl)-1,2,4-oxadiazol-3-yl]amino}phenyl)imidazo[1,2-a]pyridine-3-carboxamide]
18 | 10 | Cc1ccc(Nc2noc(-c3ccccc3)n2)cc1NC(=O)c1cnc2ccccn12 [F20, N-{2-methyl-5-[(5-phenyl-1,2,4-oxadiazol-3-yl)amino]phenyl}imidazo[1,2-a]pyridine-3-carboxamide]
19 | 8 | Cc1ccc(Nc2noc(-c3ccccn3)n2)cc1NC(=O)c1cnc2ccccn12 [F21, N-(2-methyl-5-{[5-(pyridin-2-yl)-1,2,4-oxadiazol-3-yl]amino}phenyl)imidazo[1,2-a]pyridine-3-carboxamide]

Same assay, conditions: Table 1; Mo7e cells stimulated with human recombinant SCF, 48 hours; 20% FBS (values marked *)

Row | IC50 [nM] | SMILES
20 | 65 | Cc1ccc(-c2nc(Cc3ccccc3)no2)cc1NC(=O)c1cnc2ccccn12 [F3, N-[5-(3-benzyl-1,2,4-oxadiazol-5-yl)-2-methylphenyl]imidazo[1,2-a]pyridine-3-carboxamide]
21 | 23 | Cc1ccc(-c2nc(-c3cnccc3C(F)(F)F)no2)cc1NC(=O)c1cnc2ccccn12 [F4, N-(2-methyl-5-{3-[4-(trifluoromethyl)pyridin-3-yl]-1,2,4-oxadiazol-5-yl}phenyl)imidazo[1,2-a]pyridine-3-carboxamide]
22 | 73 | Cc1ccc(-c2nc(-c3ccc4c(c3)CCO4)no2)cc1NC(=O)c1cnc2ccccn12 [F5, N-{5-[3-(2,3-dihydro-1-benzofuran-5-yl)-1,2,4-oxadiazol-5-yl]-2-methylphenyl}imidazo[1,2-a]pyridine-3-carboxamide]
23 | 66 | CCOc1cccc(-c2noc(-c3ccc(C)c(NC(=O)c4cnc5ccccn45)c3)n2)c1 [F8, N-{5-[3-(3-ethoxyphenyl)-1,2,4-oxadiazol-5-yl]-2-methylphenyl}imidazo[1,2-a]pyridine-3-carboxamide]

Same assay, conditions: Table 2; Mo7e cells stimulated with human recombinant SCF, 48 hours; 1% FBS

Row | IC50 [nM] | SMILES
24 | 137 | Cc1ccc(-c2nc(-c3ccccn3)no2)cc1NC(=O)c1cnc2ccccn12 [F24, N-(2-methyl-5-(3-(pyridin-2-yl)-1,2,4-oxadiazol-5-yl)phenyl)imidazo[1,2-a]pyridine-3-carboxamide]

Same assay, conditions: Table 2; Mo7e cells stimulated with human recombinant SCF, 48 hours; 20% FBS instead of 1% FBS (values marked *)

Row | IC50 [nM] | SMILES
25 | 424 | Cc1ccc(-c2nc(-c3cnccn3)no2)cc1NC(=O)c1cnc2ccccn12 [F25, N-{2-methyl-5-[3-(pyrazin-2-yl)-1,2,4-oxadiazol-5-yl]phenyl}imidazo[1,2-a]pyridine-3-carboxamide]
26 | 845 | Cc1ccc(-c2nc(-c3c(Cl)cccc3Cl)no2)cc1NC(=O)c1cnc2ccccn12 [F26, N-{5-[3-(2,6-dichlorophenyl)-1,2,4-oxadiazol-5-yl]-2-methylphenyl}imidazo[1,2-a]pyridine-3-carboxamide]
